From patent publication US5162336A, “Tetrahydro-pyrido-indoles as cholecystokinin and gastrin antagonists” (Rhone-Poulenc Rorer Pharmaceuticals Inc., priority 1990, dated 1992) come the findings set out here.

The assay deals with T1, Gastrin receptor (Cavia porcellus, UniProt H0VZC5).
T1 construct: The fundic mucosa is gently scraped off the submucosa; from tissue; host or cells: gastric glands from fundic mucosa of Hartley guinea pig
T1 sequence (H0VZC5 1-426): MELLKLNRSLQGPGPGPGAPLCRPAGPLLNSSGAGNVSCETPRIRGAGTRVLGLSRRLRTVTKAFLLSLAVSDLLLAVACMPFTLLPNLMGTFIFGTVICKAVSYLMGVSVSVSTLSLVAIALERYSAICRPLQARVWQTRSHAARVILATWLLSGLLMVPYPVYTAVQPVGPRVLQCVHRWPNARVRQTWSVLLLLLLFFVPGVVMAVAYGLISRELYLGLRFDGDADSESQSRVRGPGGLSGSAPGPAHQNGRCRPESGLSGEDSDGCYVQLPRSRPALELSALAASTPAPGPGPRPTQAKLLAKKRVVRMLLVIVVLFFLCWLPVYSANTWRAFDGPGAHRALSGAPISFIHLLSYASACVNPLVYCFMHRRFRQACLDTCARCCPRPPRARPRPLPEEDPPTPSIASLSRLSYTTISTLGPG
Put plainly: Gastrin receptor binding assay (displacement of 125I-(Leu-15)-Gastrin from guinea pig fundic glands). Also on record: species or system guinea pig (Hartley Strain). As to conditions: guinea pig fundic mucosa glands, 25° C., 30 min, read-out: In vitro Binding Data IC50 Gastrin. The method, then: (a) Phosphate Buffered Saline (PBS): 8.743 g NaCl, 523 mg K2 HPO4 and 76.8 mg NaH2 PO4 is dissolved in 1.0 liter of deionized water and the pH of the solution is adjusted to 7.3 with 5N NaOH.
(b) Buffer A: While adding Basal Medium Eagle (BME) containing Earle's Salts, L-glutamine and 25 mM HEPES, 3 liters of deionized water is stirred, followed by the addition and dissolution of […] of sodium bicarbonate. The solution is then equilibrated with 95% O2 /5% CO2 gas followed by titration to a pH of 7.4 with NaOH.
(c) Buffer B: 18.75 mg of collagenase and […] of BSA is dissolved in 25 ml of Buffer A.
(d) Buffer C: 0.3 g of BSA is dissolved in 300 ml of Buffer A.
(e) 6.25 mg Bacitracin is dissolved in 25 ml of Buffer A.
(f) ^125 I-(Leu-15)-Gastrin: 100 microcurie dissolved in 2.0 ml of Buffer A to make 50 microcurie/ml.
(g) ^125 I-(15-methionine)-Human Gastrin: 50 microcurie/ml.
(h) (Leu 15)-Gastrin: 5.2 mg of (Leu-15)- Gastrin is dissolved in 10 ml of Buffer A. At the time of assay 1:10 dilution is made and 10 μl assay tube is used.
A guinea pig (Hartley Strain) weighing 150-200 grams, is sacrificed by CO2 asphyxiation and the stomach immediately excised, cut along the greater curvature, cleaned out and immediately immersed in a beaker containing cold PBS, pH 7.3, to insure thorough cleaning. The fundic mucosa is gently scraped off the submucosa and added to a preweighed 50 ml plastic centrifuge tube containing 30 ml of cold Buffer A. The weight of the plastic centrifuge tube containing the buffer is then subtracted from the combined weight of the mucosa and the buffer-containing tube to give the weight of the mucosa. The weight of the mucosa thus determined is recorded for later calculations.
The mucosa is then washed twice in Buffer A. After the final wash, the tissue is minced and is placed in a 100-ml glass beaker containing about 1.0 ml of Buffer A, and washed twice again by repeated centrifugation at 50×g for 5 minutes each and aspiration of supernatant. The washed tissue fragments are then added to a glass Erlenmeyer flask containing 25 ml of Buffer B and incubated in a Dubnoff shaking water bath at 37° C. for 30 minutes in a 95% O2 - 5% CO2 atmosphere. After the incubation, the digested tissue fragments in the Collegenase-buffer solution are triturated, filtered through a 200-micron nylon mesh and centrifuged at 50×g for 5 minutes. The supernatant is aspirated and discarded, the tissue washed 2× in Buffer C, resuspended in same buffer, incubated in a 37° C. water bath in an atmosphere of 95% O2 - 5% CO2 for 5 minutes, and centrifuged. The pelleted glands are suspended in Buffer D at a desired concentration of 2x10^5 glands/ml to use in the receptor binding assay.
Six minisorp tubes (16×100 mm) are serially marked and divided into two groups thus: tubes #1, #2, and #3 are marked "T" for "Totals" and tubes #4, #5, and #6 are marked "NS" for "Non-Specifics." Into each of the six tubes are added 220 μl of prepared glands in Buffer D; 20 μl of Buffer A in tubes #1, #2, and #3; 10 μl, in tubes #4, #5 and #6; (10μ of (Leu-15)-Gastrin (25 μM) in tubes #4, #5, and #6. The six tubes are then transferred immediately to a 25° C. water bath and challenged each with 10 μl ^125 I-(Leu-15)-Gastrin diluted as per calculation. The tubes are then covered with a gas hood connected to a 95% O2 - 5% CO2 gas source and mechanically agitated in a shaker for 30 minutes.
At the end of the incubation period, the assay mixtures are each filtered through a Whatman glass fiber filter B on a Brandel tissue harvester and washed twice with Buffer A. The filters are pre-soaked in Buffer C before use. The filter strips are removed after the final wash and individual filters counted in a Gamma Counter. The counts from the "Non-Specific" tubes are then averaged and subtracted from the average "Totals" to give the Specific Counts. […]
For orientation: Loss of bound radioactivity is the signal in a displacement assay; it reports binding, not function.
Regarding `CC(C)C[C@H](NC(=O)[C@H]1Cc2c([nH]c3ccccc23)CN1C(=O)Nc1cccc(C(F)(F)F)c1)C(=O)N[C@@H](CC(=O)O)C(N)=O` [Example 63], the IC50 turned out to be 4.1 µM.

Regarding `CC(C)C[C@H](NC(=O)[C@H]1Cc2c([nH]c3ccccc23)CN1C(=O)c1ccc2ccccc2c1)C(=O)N[C@@H](CC(=O)O)C(N)=O` [Example 10, N-[(3R)-2-(2-naphthoyl)-1,2,3,4-tetrahydro-9H-pyrido[3,4-b]indole-3-carboxyl]-L-leucyl-L-aspartic acid amide], the IC50 amounted to 15 µM.

For the molecule `CCOC(=O)c1ccccc1NC(=O)[C@H]1Cc2c([nH]c3ccccc23)CN1C(=O)OCc1ccccc1` [Example 17], the IC50 was found to be 100 µM.

With `Cc1cccc(NC(=O)N2Cc3[nH]c4ccccc4c3C[C@@H]2C(=O)N[C@@H](CC(C)C)C(=O)N[C@@H](CC(=O)O)C(N)=O)c1` [Example 11, N-[(3R)-2-(3-methylphenylcarbamoyl)-1,2,3,4-tetrahydro-9H-pyrido[3,4-b]indole-3-carboxyl]-L-leucyl-L-aspartic acid amide], the IC50 amounted to 4 µM.

As to `CC[C@H](C)[C@H](NC(=O)[C@H]1Cc2c([nH]c3ccccc23)CN1C(=O)Nc1ccc(Cl)c(Cl)c1)C(=O)N[C@@H](CC(=O)O)C(N)=O` [Example 24, N-[(3R)-2-(3,4-dichlorophenylcarbamoyl)-1,2,3,4-tetrahydro-9H-pyrido[3,4-b]indol-3-yl]carbonyl-L-isoleucyl-L-aspartic acid amide], the IC50 is 0.77 µM.

Consider `Cc1cccc(NC(=O)N2Cc3[nH]c4ccccc4c3C[C@@H]2C(=O)N[C@H](CC(C)C)C(=O)N[C@H](CC(=O)O)C(N)=O)c1` [Example 45], for which the IC50 was greater than 10 µM.

Take `Cc1cccc(NC(=O)N2Cc3[nH]c4ccccc4c3C[C@@H]2C(=O)N[C@@H](C)C(=O)N[C@@H](CC(=O)O)C(N)=O)c1` [Example 58]: the IC50 worked out at 18 µM.

As to `O=C(Nc1ccccc1C(=O)N1CCCC1)[C@H]1Cc2c([nH]c3ccccc23)CN1C(=O)OCc1ccccc1` [Example 18, pyrrolidine-2-N-[(3R)-2-carbobenzoxy-1,2,3,4-tetrahydro-9H-pyrido-[3,4-b]indole-3-carboxyl]aminobenzamide], the IC50 came out at 55 µM.

For `Cc1cccc(NC(=O)N2Cc3[nH]c4ccccc4c3C[C@H]2C(=O)N[C@@H](CC(C)C)C(=O)N[C@@H](CC(=O)O)C(N)=O)c1` [Example 12, N-[(3S)-2-(3-methylphenylcarbamoyl)-1,2,3,4-tetrahydro-9H-pyrido[3,4-b]indole-3-carboxyl]-L-leucyl-L-aspartic acid amide], the IC50 stood at 29 µM.

As to `CC(C)C[C@H](NC(=O)[C@@H]1Cc2c([nH]c3ccccc23)CN1)C(=O)N[C@@H](CC(=O)O)C(N)=O` [Example 2, N-[(3S)-1,2,3,4-tetrahydro-9H-pyrido[3,4-b]indole-3-carboxyl]-L-leucyl-L-aspartic acid amide], the IC50 is 60 µM.

Regarding `CCOC(=O)c1cccc(NC(=O)[C@H]2Cc3c([nH]c4ccccc34)CN2C(=O)OCc2ccccc2)c1` [Example 16, ethyl 3-N-[(3R)-2-carbobenzoxy-1,2,3,4-tetrahydro-9H-pyrido[3,4-b]indole-3-carboxyl]aminobenzoate], the IC50 is greater than 300 µM.

For the molecule `O=C(Nc1ccccc1C(=O)N1CCCC1)[C@H]1Cc2c([nH]c3ccccc23)CN1C(=O)c1ccc2ccccc2c1` [Example 20, pyrrolidine-2-N-[(3R)-2-(2-naphthoyl)-1,2,3,4-tetrahydro-9H-pyrido[3,4-b]indole-3-carboxyl]aminobenzamide], the IC50 worked out at 80 µM.

As for `CCCCCN(CCCCC)C(=O)[C@H](CC(=O)O)NC(=O)[C@H]1Cc2c([nH]c3ccccc23)CN1C(=O)Nc1cccc(C)c1` [Example 46, N-[(3R)-2-(3-methylphenylcarbamoyl)-1,2,3,4-tetrahydro-9H-pyrido[3,4-b]indole-3-carboxyl]-L-aspartic acid dipentyl amide], the IC50 was 2.6 µM.

Take `CC(C)C[C@H](NC(=O)[C@H]1Cc2c([nH]c3ccccc23)CN1C(=O)Nc1ccccc1)C(=O)N[C@@H](CC(=O)O)C(N)=O` [Example 14, N-[(3R)-2-phenylcarbamoyl-1,2,3,4-tetrahydro-9H-pyrido[3,4-b]indole-3-carboxyl]-L-leucyl-L-aspartic acid amide]: the IC50 is 5.5 µM.

Take `CC(C)C[C@H](NC(=O)[C@H]1Cc2c([nH]c3ccccc23)CN1C(=O)c1ccccc1)C(=O)N[C@@H](CC(=O)O)C(N)=O` [Example 9, N-[(3R)-2-benzoyl-1,2,3,4-tetrahydro-9H-pyrido[3,4-b]indole-3-carboxyl]-L-leucyl-L-aspartic acid amide]: the IC50 was found to be 25 µM.

On to `Cc1cccc(NC(=O)N2Cc3[nH]c4ccccc4c3C[C@@H]2C(=O)N2CCC[C@H]2C(=O)N[C@@H](CC(=O)O)C(N)=O)c1` [Example 44, N-[(3R)-2-(3-methylphenylcarbamoyl)-1,2,3,4-tetrahydro-9H-pyrido[3,4-b]indole-3-carboxyl]-L-prolyl-L-aspartic acid amide], for which the IC50 worked out at 2.2 µM.

For `O=C(Nc1ccccc1C(=O)N1CCCC1)[C@@H]1Cc2c([nH]c3ccccc23)CN1C(=O)OCc1ccccc1` [Example 19, pyrrolidine-2-N-[(3S)-2-carbobenzoxy-1,2,3,4-tetrahydro-9H-pyrido[3,4-b]indole-3-carboxyl]aminobenzamide], the IC50 was 8 µM.

On to `CC(C)C[C@H](NC(=O)[C@H]1Cc2c([nH]c3ccccc23)CN1C(=O)Nc1cc(Cl)cc(Cl)c1)C(=O)N[C@@H](CC(=O)O)C(N)=O` [Example 59, N-[(3R)-2-(3,5-dichlorophenylcarbamoyl)-1,2,3,4-tetrahydro-9H-pyrido[3,4-b]indole-3-carboxyl]-L-leucyl-L-aspartic acid amide], for which the IC50 is 2 µM.

Take `CCOC(=O)c1ccc(NC(=O)[C@H]2Cc3c([nH]c4ccccc34)CN2C(=O)OCc2ccccc2)cc1` [Example 15, ethyl 4-N-[(3R)-2-carbobenzoxy-1,2,3,4-tetrahydro-9H-pyrido[3,4-b]indole-3-carboxyl]aminobenzoate]: the half-inhibitory concentration (IC50) was found to be 10 µM.

As for `Cc1cccc(NC(=O)N2Cc3[nH]c4ccccc4c3C[C@@H]2C(=O)N[C@H](CC(C)C)C(=O)N[C@@H](CC(=O)O)C(N)=O)c1` [Example 57, N-[(3R)-2-(3-methylphenylcarbamoyl)-1,2,3,4-tetrahydro-9H-pyrido[3,4-b]indole-3-carboxyl]-D-leucyl-L-aspartic acid amide], the IC50 was 22 µM.

Turning to `CCCCN(CCCC)C(=O)c1ccccc1NC(=O)[C@H]1Cc2c([nH]c3ccccc23)CN1C(=O)OCc1ccccc1` [Example 22], the concentration for half-maximal inhibition (IC50) is greater than 300 µM.

For the molecule `Cc1cccc(NC(=O)N2Cc3[nH]c4ccccc4c3C[C@@H]2C(=O)N[C@@H](COCc2ccccc2)C(=O)N[C@@H](CC(=O)O)C(N)=O)c1` [Example 64], the IC50 amounted to 5.3 µM.

In general, IC50 refers to the point on the concentration scale where inhibition reaches its midpoint.
